Source: paper doi:10.1101/2022.12.30.522309v1 (biorxiv, 2022)

Target: T1, human FFA2R (Homo sapiens, UniProt O15552)
T1 sequence (O15552 1-330): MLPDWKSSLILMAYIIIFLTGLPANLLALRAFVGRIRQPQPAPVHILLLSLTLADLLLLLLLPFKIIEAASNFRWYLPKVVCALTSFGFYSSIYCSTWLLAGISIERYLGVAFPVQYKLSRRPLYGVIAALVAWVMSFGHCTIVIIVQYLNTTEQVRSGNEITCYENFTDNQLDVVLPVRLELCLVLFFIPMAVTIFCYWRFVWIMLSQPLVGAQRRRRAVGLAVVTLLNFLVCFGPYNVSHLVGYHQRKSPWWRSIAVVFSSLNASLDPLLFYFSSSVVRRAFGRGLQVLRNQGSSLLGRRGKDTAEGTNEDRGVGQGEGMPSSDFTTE
Assay: inhibition of forskolin-induced cAMP, LANCE Ultra TR-FRET, HEK293
Assay type: cell-based

EC50: 1.24 mM
Compound: CC(=O)CC(=O)O [acetoacetate]
